Data reported in US11466020B2, “Compounds and compositions for inhibition and elimination of Zika infection and uses for same” (Cornell University, priority 2017, dated 2022).
Where a name gives a salt, the structure may show the parent alone.

Legend:
ZIKV (MR766 strain) = assay: Therapeutic treatment of ZIKV (MR766 strain) infected SCID-beige mice; format: in vivo; conditions: HH 100 mg/kg/day subcutaneously for 5 days from day 5 post-infection
Experimental: (§1) (A) Scheme of prophylactic treatment of HH in vivo. HH was administrated to SCID-Beige mice 12 h before infection with MR766 virus strain. HH was injected at a dose of 100 mg/kg/day subcutaneously and euthanized at day 7. (B) qRT-PCR analysis of total ZIKV vRNA in liver, spleen, kidney and brain of ZIKV infected mice. n=12 for liver, spleen and kidney and 20 for brain. (C) qRT-PCR analysis of total ZIKV vRNA in brains of ZIKV-infected mice treated with vehicle (n=14) or HH (n=8). […] (D-F) Immunohistochemical analysis of adult cortex. […] HH prevents infection in all cortical cells. Scale bar=100 μm in (D) and 10 μm in (E, F). (G-I) Immunohistochemical analysis of adult hippocampus. […] HH inhibits infection of all cells in the hippocampus. […] The mice were then euthanized and RNA from brains was analyzed using qRT-PCR. […] The mice were euthanized after 7 days treatment and RNA from brains was analyzed using qRT-PCR. (W, X) qRT-PCR analysis of total vRNA (W) and (−) strand RNA (X) in the brains of mice treated with vehicle (n=8) or HH (n=11) at day 7 post-infection. p values were calculated by one-way repeated measures ANOVA or two-way repeated measures ANOVA with a Bonferroni test for multiple comparisons. *p<0.05, **p<0.01 and ***p<0.001.
(§2) To evaluate the therapeutic potential of HH, we first monitored the kinetics of ZIKV infection (MR766 strain) in the adult mouse brain. […]

ZIKV (FSS13025 strain) = assay: Therapeutic treatment of ZIKV (FSS13025 strain) infected SCID-beige mice; format: in vivo; conditions: HH 100 mg/kg/day subcutaneously for 7 days from day 7 post-infection
Experimental: as §1, §2

For `CN1CCC2=C[C@H](O)[C@H]3OC(=O)c4cc5c(cc4[C@H]3[C@@H]21)OCO5` [HH, hippeastrine hydrobromide], which “total and replicating (-) vRNA levels in brain” value (ZIKV (MR766 strain)) is on record?
Its value is “significantly decreased”.

And the “total and replication (-) strand vRNA in mouse brain” value (ZIKV (FSS13025 strain))?
The value was “significantly decreased”.
